# US6867185B2 (Bristol-Myers Squibb Company, priority 2001, dated 2005)
# Where a name gives a salt, the structure may show the parent alone.
# What was measured:
# [1] = molecular target: T1, human neutrophil elastase (HNE) (Homo sapiens, UniProt P08246); experiment: Specificity assay, human neutrophil elastase; format: biochemical; conditions: 2 hr pre-incubation, read-out: HLE
# T1 construct: purchased Sigma
# T1 sequence (P08246 30-267): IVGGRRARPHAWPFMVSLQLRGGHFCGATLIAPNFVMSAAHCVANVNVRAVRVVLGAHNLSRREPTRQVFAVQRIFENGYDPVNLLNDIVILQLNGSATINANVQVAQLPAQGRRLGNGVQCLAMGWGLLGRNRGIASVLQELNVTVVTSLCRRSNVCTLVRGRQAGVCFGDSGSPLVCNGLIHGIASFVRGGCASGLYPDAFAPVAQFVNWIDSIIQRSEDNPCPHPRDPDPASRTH
# Method: The specificities of compounds of the present invention were determined against a variety of serine proteases: human neutrophil elastase (HNE), porcine pancreatic elastase (PPE) and human pancreatic chymotrypsin and one cysteine protease: human liver cathepsin B. In all cases a 96-well plate format protocol using colorimetric p-nitroaniline (pNA) substrate specific for each enzyme was used as described previously (U.S. Pat. No. 6,323,180) with some modifications to the serine protease assays. All enzymes were purchased from Sigma while the substrates were from Bachem.
# Each assay included a 2 hr enzyme-inhibitor pre-incubation at RT followed by addition of substrate and hydrolysis to ˜30% conversion as measured on a Spectramax Pro microplate reader. Compound concentrations varied from 100 to 0.4 μM depending on their potency. […]
# The percentage of inhibition was calculated using the formula: [1−((UVinh−UVblank)/(UVctl−UVblank))]×100 […]
# [2] = molecular target: T2, HCV NS3/4A protease complex, BMS strain (genotype 1a) (Hepatitis C virus genotype 1a, UniProt P27958, C1454S/C1711G); experiment: Recombinant HCV NS3/4A protease complex FRET peptide assay (BMS strain); format: biochemical
# T2 construct: recombinant HCV NS3/4A protease complex (amino'acids 1027 to 1711); inferred from the pET21b vector and Ni-NTA purification; made in house; host or cells: Escherichia coli BL21 (DE3), pET21b
# In short: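 Enzyme was NS3/4A complex (aa 1027-1711) from genotype 1a BMS strain, carrying C1454S and C1711G mutations plus a three-lysine tail, expressed in E. coli and Ni-NTA/size-exclusion purified to >90% purity.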
# T2 sequence (P27958 1027-1711 C1454S/C1711G, one chain of several): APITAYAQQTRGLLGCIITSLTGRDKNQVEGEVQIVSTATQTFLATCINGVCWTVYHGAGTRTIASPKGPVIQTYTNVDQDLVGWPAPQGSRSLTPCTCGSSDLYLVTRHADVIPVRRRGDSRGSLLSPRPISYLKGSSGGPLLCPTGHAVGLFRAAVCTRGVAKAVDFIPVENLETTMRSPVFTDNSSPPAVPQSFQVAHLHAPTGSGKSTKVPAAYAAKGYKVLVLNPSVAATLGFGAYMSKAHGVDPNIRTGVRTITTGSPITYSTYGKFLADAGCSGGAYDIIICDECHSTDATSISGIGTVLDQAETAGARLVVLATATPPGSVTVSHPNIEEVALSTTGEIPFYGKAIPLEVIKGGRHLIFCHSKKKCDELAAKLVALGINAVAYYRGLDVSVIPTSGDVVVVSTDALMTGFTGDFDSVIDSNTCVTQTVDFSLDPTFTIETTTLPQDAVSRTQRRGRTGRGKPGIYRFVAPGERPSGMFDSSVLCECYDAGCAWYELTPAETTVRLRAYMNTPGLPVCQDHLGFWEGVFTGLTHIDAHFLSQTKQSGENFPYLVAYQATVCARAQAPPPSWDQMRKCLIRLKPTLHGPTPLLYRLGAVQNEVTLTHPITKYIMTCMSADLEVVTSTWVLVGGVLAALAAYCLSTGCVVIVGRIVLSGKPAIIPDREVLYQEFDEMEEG
smiles,measurement,setting,value
"COc1ccc2c(O[C@@H]3C[C@H]4C(=O)N[C@]5(C(=O)NS(=O)(=O)C6CC6)CC5/C=C/CCCC[C@H](N)C(=O)N4C3)cc(-c3ccccc3)nc2c1 (stereo partly drawn) [Compound 6, (1S,4R,6S,13S,17R)-7-trans-Cyclopropanesulfonic acid [13-amino-17-(7-methoxy-2-phenylquinolin-4-yloxy)-2,14-dioxo-3,15-diazatricyclo[13.3.0.0^4,6]octadec-7-ene-4-carbonyl]amide dihydrochloride]",IC50,[1],30 µM
same,IC50,"[2]; IC50, HCV NS3/4A protease FRET assay in vitro, IC50 ranges",< 0.05 µM
same,IC50,"[2]; IC50, against the BMS HCV NS3/4A complex",0.021 µM
